In US6037365A, “Aminobenzamidinosuccinyl lactone derivatives useful as inhibitors of platelet aggregation” (G.D. Searle & Co., priority 1998, dated 2000) one finds IC50 data, which are given here for 17 compounds.

SMILES strings stand for the structures. Structures can show the parent of a compound that is named as a salt.

Usually IC50 stands for the concentration that inhibits the measured activity by half.

The first experiment concerns platelet aggregation in platelet-rich plasma (PRP). Nature of the experiment: In-Vitro Platelet Aggregation in PRP (ADP-induced). In kind it is cell-based, dogs. The note with it: Canis lupus familiaris, Platelet, dog PRP, ADP 50 μM final concentration, 1 min preincubation at 37° C., aggregation monitored 1 min; unit inferred; read-out: IC50 (dosage at which 50% of platelet aggregation is inhibited). As to the method: In-Vitro Platelet Aggregation in PRP
Healthy male or female dogs were fasted for 8 hours prior to drawing blood; then 30 mL whole blood was collected using a butterfly needle and 30 mL plastic syringe with 3 mL of 0.129M buffered sodium citrate (3.8%). The syringe was rotated carefully as blood was drawn to mix the citrate. Platelet-rich plasma (PRP) was prepared by centrifugation at 975×g for 3.17 minutes at room temperature allowing the centrifuge to coast to a stop without braking. The PRP was removed from the blood with a plastic pipette and placed in a plastic-capped 50 mL Corning conical sterile centrifuge tube which was held at room temperature. Platelet-poor plasma (PPP) was prepared by centrifuging the remaining blood at 2000×g for 15 minutes at room temperature allowing the centrifuge to coast to a stop without braking. The PRP was adjusted with PPP to a count of 2-3×10^8 platelets/mL. The PRP preparation (400 μL) and 50 μL of the compound solution to be tested or saline were preincubated for 1 minute at 37° C. in a BioData aggregometer (BioData, Horsham, Pa.). Adenosine-5'-diphosphate (ADP, 50 μL, 50 μM final concentration) was added to the cuvettes and the aggregation was monitored for 1 minute. All compounds are tested in duplicate. Results are calculated as follows: Percent of control=[(maximal OD minus initial OD of compound) divided by (maximal OD minus initial OD of control saline)]×100. The percent inhibition equals 100-(percent of control).
The compounds tested and their median inhibitory concentrations (IC50) are recorded in Table 1. The IC50 (dosage at which 50% of platelet aggregation is inhibited) were calculated by linear regression of the dose response curve.
Regarding `N=C(N)c1ccc(NC(=O)CCC(=O)NC2CC(=O)Oc3ccccc32)cc1` (centres unmarked) [Ex 8 Step 2, N-[4-(aminoiminomethyl)phenyl]-N'-[3,4-dihydro-2-oxo-2H-1-benzopyran-4-yl]butanediamide, Trifluoroacetate], the half-inhibitory concentration (IC50) turned out to be 200 nM.
Same read-out and setting: in the case of `N=C(N)c1ccc(NC(=O)CCC(=O)N[C@@H]2COC(=O)C2)cc1` [Ex 1 Step 4, N-[4-(aminoiminomethyl)phenyl]-N'-(tetrahydro-5-oxo-3S-furanyl)butanediamide, Trifluoroacetate] it was 3000 nM; in that of `N=C(N)c1ccc(NC(=O)CCC(=O)N[C@H]2CC(=O)OC2c2ccc(F)cc2)cc1` (single isomer, unassigned; diastereoisomer a) [Ex 4 Step 4], 500 nM.
Same read-out and setting: in the case of `N=C(N)c1ccc(NC(=O)CCC(=O)N[C@H](CO)CC(=O)O)cc1` [Ex 1 Step 5, 3S-[[4-[[4-aminoiminomethyl)phenyl]amino]-1,4-dioxobutyl]amino]-4-hydroxybutanoic acid, trifluoroacetate] it was 700 nM; in that of `N=C(N)c1ccc(NC(=O)CCC(=O)NC(CC(=O)O)c2ccccc2O)cc1` (centres unmarked) [Ex 8 Step 1, 3-[[4-[[4-(aminoiminomethyl)phenyl]-amino]-1,4-dioxobutyl]amino-]3(-hydroxyphenyl)propanoic acid], 260 nM.
`C=CC(O)[C@H](CC(=O)O)NC(=O)CCC(=O)Nc1ccc(C(=N)N)cc1` (stereo partly drawn) [Ex 7 Step 5, 3S-[[4-[[4-(aminoiminomethyl)phenyl]amino]-1,4-dioxobutyl]amino]-4-hydroxy-hex-5-enoic acid, trifluoroacetate]: the IC50 was 290 nM.

The experiment is the same for the next values; noted with them: dog PRP, ADP 50 μM final concentration, 1 min preincubation at 37° C., aggregation monitored 1 min; unit inferred; read-out: IC50 (dosage at which 50% of platelet aggregation is inhibited).
Take `N=C(N)c1ccc(NC(=O)CCC(=O)N[C@H]2CC(=O)OC2c2ccc3c(c2)OCO3)cc1` (single isomer, unassigned; diastereoisomer 2) [Ex 10 Step 1]: the IC50 was 3000 nM.
Still for that read-out and setting: in the case of `N=C(N)c1ccc(NC(=O)CCC(=O)N[C@@H](CC(=O)O)C(O)c2ccc3c(c2)OCO3)cc1` (single isomer, unassigned) [Ex 9 Step 6, 3S-[[4-[[4-(aminoiminomethyl)phenyl]amino]-1,4-dioxobutyl]amino]-4-hydroxy-[5-(1,3-benzodioxolyl)]butanoic acid, trifluoroacetate] it was 350 nM; in that of `N=C(N)c1ccc(NC(=O)CCC(=O)N[C@H]2CC(=O)OC2c2ccccc2)cc1` (single isomer, unassigned; isomer a) [Ex 2 Step 5, N-[4-(aminoiminomethyl)phenyl]-N'-(tetrahydro-5-oxo-2-phenyl-3S-furanyl)butanediamide, Trifluoroacetate (Isomer A)], 650 nM.
On the same count and under the same terms, in the case of `N=C(N)c1ccc(NC(=O)CCC(=O)N[C@@H](CC(=O)O)C(O)c2ccccc2)cc1` (single isomer, unassigned) [Ex 2 Step 6, 3S-[[4-[[4-(aminoiminomethyl)phenyl]amino]-1,4dioxobutyl]amino]-4-hydroxy-phenyl-butanoic acid, trifluoroacetate] it was 1600 nM.
For the compound `N=C(N)c1ccc(NC(=O)CCC(=O)N[C@H]2CC(=O)OC2c2ccc3c(c2)OCO3)cc1` (single isomer, unassigned; diastereoisomer 1) [Ex 9 Step 5, N-[4-(aminoiminomethyl)phenyl]-N'-[tetrahydro-5-oxo-2-[5-(1,3-benzodioxolyl)]-3S-furanyl]butanediamide, Trifluoroacetate; Diastereoisomer 1], the IC50 came to 430 nM.
`N=C(N)c1ccc(NC(=O)CCC(=O)N[C@@H](CC(=O)O)C(O)c2ccccc2)cc1` (single isomer, unassigned) [Ex 3 Step 2, 3S-[[4-[[4-(aminoiminomethyl)phenyl]amino]-1,4-dioxobutyl]amino]-4-hydroxy-phenylbutanoic acid, trifluoroacetate]: the IC50 came to 600 nM.
On the same count and under the same terms, next, `N=C(N)c1ccc(NC(=O)CCC(=O)N[C@@H](CC(=O)O)C(O)c2ccc3c(c2)OCO3)cc1` (single isomer, unassigned) [Ex 10 Step 2, 3S-[[4-[[4-(aminoiminomethyl)phenyl]amino]-1,4-dioxobutyl]amino-4-hydroxy-4-[5-(1,3-benzodioxolyl)]butanoic acid, trifluoroacetate]: 1300 nM; `N=C(N)c1ccc(NC(=O)CCC(=O)N[C@@H](CC(=O)O)C(O)c2ccc(F)cc2)cc1` (single isomer, unassigned) [Ex 4 Step 5, 3S-[[4-[[4-(aminoiminomethyl)phenyl]amino]-1,4-dioxobutyl]amino]-4-hydroxy-(4-fluoro-phenyl)butanoic acid, trifluoroacetate]: 150 nM; `N=C(N)c1ccc(NC(=O)CCC(=O)NC(CC(=O)O)C(O)c2nccs2)cc1` (stereo not drawn) [Ex 6 Step 6, 3S-[[4-[[4-(aminoiminomethyl)phenyl]amino]-1,4-dioxobutyl]amino]-4-hydroxy-2-thiazolylbutanoic acid, trifluoroacetate]: 450 nM.
The same measure, in the same setting: in the case of `N=C(N)c1ccc(NC(=O)CCC(=O)N[C@H]2CC(=O)OC2c2ccccc2)cc1` (single isomer, unassigned; isomer b) [Ex 3 Step 1, N-[4-(aminoiminomethyl)phenyl]-N'-(tetrahydro-5-oxo-2-phenyl-3S-furanyl)butanediamide, trifluoroacetate (Isomer B)] it was 2500 nM; in that of `N=C(N)c1ccc(NC(=O)CCC(=O)N[C@@H](CC(=O)O)C(O)c2ccc(F)cc2)cc1` (single isomer, unassigned) [Ex 5 Step 2, 3S-[[4-[[4-(aminoiminomethyl)-phenyl]amino]-1,4-]dioxobutyl]amino]-4-hydroxy-(4-fluoro-phenyl)butanoic acid, trifluoroacetate], 800 nM.
